Results taken from patent publication US20140341857A1, “COMBINATION OF ONCOLYTIC AD[…] HISTONE DEACETYLASE INHIBITORS” (INSTITUT GUSTAVE ROUSSY, priority 2011, published 2014).
pIC50: −log10 of the molar value.

Key:
[1] = system: HCT116; assay: MTT assay, growth inhibition by HDACi after 48 h; format: cell-based
Procedure: (§1) HT29, HCT116, SW480, SW620 colon adenocarcinomas cell lines, 911 human embryonic retinal cell lines and HEK293, a human embryonic kidney cell line expressing the adenoviral E1 protein were purchased from ATCC (American Tissue Culture Collection, Manassas, Va., USA).
HCT116 were cultured, in Mc Coy's 5A mediums with 10% heat-inactivated-FBS.
(§2) First, three different histone deacetylase inhibitors: Trichostatin A (TSA), an hydroxamic acid; Valproic Acid (VPA), a short-chain aliphatic acid, and sodium butyrate (Nabu), a short-chain aliphatic acid, were evaluated for their ability to induce inhibition of the growth of these cells after 48 h of treatment using an MTT assay.

[2] = system: HT29; assay: MTT assay, growth inhibition by HDACi after 48 h; format: cell-based
Description: as §1
HT29 and 911 were maintained in Dulbecco's modified Eagle's medium (DMEM; GIBCO) supplemented with 10% heat-inactivated fetal bovine serum (FBS; GIBCO).
as §2

[3] = system: SW480; assay: MTT assay, growth inhibition by HDACi after 48 h; format: cell-based; conditions: SW480, 48 h of treatment
Procedure: as §1
(§3) The same medium was used for SW480 and SW620 supplemented with 1 mM Sodium Pyruvate (Invitrogen/GIBCO)
as §2

[4] = system: SW620; assay: MTT assay, growth inhibition by HDACi after 48 h; format: cell-based
Procedure: as §1, §3, §2

[5] = system: HT29 cells; assay: MTT cell survival after oncolytic adenovirus with or without HDACi; format: cell-based; conditions: HT29, 3 days p.i., co-treatment with VPA and AE18
Procedure: Then the cells were treated with one of these HDACis (at concentrations in the range of IC50/2 and IC50) and transduced with the oncolytic adenovirus Δ24, at increasing multiplicity of infection (MOI). The survival of the cells at day 3 p.i. was evaluated using the MTT assay.
Colon carcinoma cells (HT29, HCT116, SW480, SW620) were plated in quadruplicates on 96-well plates (10^4 cells/well) and were treated with different MOI of Δ24 CRAd (ranging from 0 to 1000 vp/cell), VPA (0, IC25 or IC50) or a combination of CRAd and VPA. After 3 days, cell viability was measured with MTT assay and the results (means+SD) were expressed relative to non-infected cells treated with different VPA doses (0, IC25 and IC50). The results are representative of three experiments.
Colon carcinoma cells (HT29, HCT116) were treated in quadruplicates with Δ24 CRAd (MOI 15.6 vp/cell) without or with VPA (IC25 or IC50) and cell viability was measured at different time points thereafter using a MTT assay. The results (means+SD) were expressed relative to untreated or VPA (0, IC25 and IC50)-treated cells at the same time point. […] They are representative of two experiments.
The effects of a co-treatment with the oncolytic adenovirus Δ24 and the histone deacetylase inhibitor VPA on the survival of HT29 cells 3 days p.i. were compared with those of a co-treatment with VPA and the recombinant adenovirus AE18. […]

[6] = system: HT29 cells; assay: LDH release cell death assay; format: cell-based; conditions: HT29, day 3, CRAd MOI 15.6 or VPA IC25/IC50 alone
Description: Colon carcinoma HT29 cells were untreated or treated with CRAd (MOI 15.6 vp/cell), VPA (IC25 or IC50) or both. After 3 days, cell death was quantified by determination of Lactate deshydrogenase (LDH) release in cell supernatant, using Tox Cytotoxicity Assay kit (TOX7, Sigma Aldrich, France). The results were expressed relative to total LDH level obtained with cells treated with identical conditions and permeabilized with triton 0.1%. The results (Mean+SD) are shown on FIG. 7. They are representative of two experiments.

[7] = system: HT29 tumor xenografts; assay: HT29 tumor xenograft growth in nude mice; format: in vivo, athymic NU/NU female mice
Procedure: HT29 cells (10^7 cells) in 100 μl PBS were injected subcutaneously into the right flank of athymic NU/NU female mice housed at the Institut Gustave Roussy.
First, the sensitivity of tumor xenografts to VPA treatment was evaluated. When tumors reached 70-100 mm^3, mice were injected intraperitoneally with VPA (200 mg/kg or 300 mg/kg) or PBS in a volume of 200 μl five consecutive days per week. Tumor volume was evaluated twice a week for 4 weeks by measuring with calipers.
In a second series of experimentation, when tumors reached 70-100 mm^3, mice were first injected subcutaneously with Δ24 CRAd, or with a non-replicative adenovirus (AdCO1, deleted of region E1) or with PBS three consecutive days and every 7 days for 4 weeks. In parallel and beginning at day 4, mice received intraperitoneal injection of VPA (300 mg/kg) or PBS in a volume of 200 μl five consecutive days per week until the end of the protocol. Tumor growth was measured twice a week for 4 weeks.

[8] = system: Δ24 CRAd; assay: CRAd production in HT29 cells, plaque assay on 911 cells; format: cell-based; conditions: HT29, CRAd MOI 15.6, VPA IC25 and IC50, 3 days
Procedure: Colon cancer HT29 cells (5·10^5) in 6-well plates were infected with Δ24 CRAd (MOI 15.6 vp/cell) alone or in combination with VPA (IC50 and IC25) in adequate medium with 2% FBS. After 1 h, 3 ml of growth medium with or without VPA was added. Then, cells were scrapped and cells and medium were harvested at different times post-infection (from day 1 to day 6). After submission of cells and medium to freeze-thaw cycles, the amount of infectious particles was determined by plaque assay on 911 cells and expressed as plaque forming unit (pfu)/ml.
In a second series of experimentations, HT29 cells (5·10^5 cells/well) in 6-well plates were infected with CRAd (MOI 15.6 vp/cell) with or without VPA (IC50 and IC25) in adequate medium supplemented with 2% FBS. After 1 h, 3 ml of growth medium with or without VPA was added. After 3 days, cells and medium were independently harvested and lysed by freeze-thaw cycles. Then, the amount of infectious particles was measured by plaque assay on 911 cells, and expressed as pfu/ml.

[9] = system: E1A and fiber adenoviral proteins; assay: Western blot of early (E1A) and late (fiber) adenoviral proteins in HT29 cells; format: cell-based
Procedure: For determining viral protein expression, HT29 cells (5·10^5) in MW6 medium were treated with Δ24 CRAd (MOI 15.6 vp/cell), with or without VPA. At different time points p.i. (24 h, 48 h, and 72 h), tumor cells were harvested and protein extracts were prepared in RIPA buffer (10 mM Tris base pH 8.8, NaCl 150 mM, EDTA 1 mM, NP-40 1%, deoxycholic acid 1%) supplemented with mini EDTA proteases (Roche laboratory). In order to quantify the expression of early (E1A) and late (fiber) adenoviral proteins, proteins (25 μg) were run into a NuPage (Invitrogen, France), transferred onto a nitrocellulose membrane, and probed with anti-fiber antibody (AB4 clone 4D2, THERMOSCIENTIFIC), anti-E1A antibody (sc-430, Santa Cruz), or (as a control) anti-actin antibody (Clone AC-15, SIGMA-ALDRICH) followed by HRP-conjugated secondary antibody.

[10] = system: viral hexon protein; assay: Immunohistochemistry of viral hexon protein in HT29 tumor xenografts; format: in vivo, mice; conditions: tumors excised at day 10, VPA 300 mg/kg
Procedure: The effects of VPA on CRAd replication were also tested in vivo in HT29 tumor xenografts of mice injected with PBS, Δ24 CRAd, or VPA (300 mg/kg)+CRAd as described in Example 2 above. Tumors were excised at day 10, and expression of viral hexon protein was evaluated by immunohistochemistry. Tumors were fixed in FineFix (from IGR) paraffin-embedded, and cut into 4-μm-thick sections. Hematoxylin-eosin-safranin staining was performed on all of the xenografts for analysis of morphology. The polyclonal anti-adenovirus hexon protein antibody AB 1056 (CHEMICON INTERNATIONAL, Temecula, Calif.), diluted 1:300, was detected by a biotinylated rabbit antigoat immunoglobulin antibody streptavidin-horseradish peroxidase conjugate (DAKO), and the chromogen diaminobenzidine. Slides were counterstained with hematoxylin.

[11] = system: p21; assay: p21 expression, Western blot; format: cell-based; conditions: HCT116, VPA IC25 and IC50, 24, 48, 72 h
Procedure: Colon cancer cells HT29 or HCT116 (5·10^5) in MW6 were treated with Δ24 CRAd (MOI 15.6 vp/cell), with or without VPA (IC25 and IC50). At 24, 48, and 72 h p.i., tumor cells were harvested and protein extracts were prepared in RIPA buffer (10 mM Tris base pH 8.8, NaCl 150 mM, EDTA 1 mM, NP-40 1%, deoxycholic acid 1%) supplemented with mini EDTA proteases (ROCHE LABORATORY). Proteins (25 μg) were run into a NuPage (INVITROGEN, France), transferred onto a nitrocellulose membrane, and probed with anti-p21/Waf1 mouse monoclonal antibody (EA10, CALBIOCHEM) and anti-actin antibody (AC-15, SIGMA-ALDRICH), followed by HRP-conjugated secondary antibody. p21 expression was quantified by IMAGE-J software and expressed as arbitrary units relative to untreated cells.

[12] = system: γH2AX; assay: γH2AX expression, Western blot; format: cell-based; conditions: CRAd MOI 15.6, VPA 10mM (the IC50 of HT29; cell line and time not given)
Procedure: Colon carcinoma HT29 and HCT116 cells (5·10^5) in MW6 were treated with Δ24 CRAd (MOI 15.6 vp/cell), with or without VPA (IC25 and IC50). At indicated time points p.i., the cells were harvested and protein extracts were prepared in RIPA buffer (10 mM Tris base pH 8.8, NaCl 150 mM, EDTA 1mM, NP-40 1%, deoxycholic acid 1%) supplemented with mini EDTA proteases (ROCHE LABORATORY). Protein extracts were sonicated and centrifuged. Then, protein extracts (25 μg) were run into a NuPage (INVITROGEN, France), transferred onto a nitrocellulose membrane, and probed with anti-phospho-H2AX (Ser139) antibody (clone JBW301, MILLIPORE) or anti-actin antibodies (AC-15, SIGMA-ALDRICH) followed by HRP-conjugated secondary antibody. γH2AX was quantified by IMAGE-J software and expressed as arbitrary units relative to untreated cells.

[13] = system: γH2AX; assay: γH2AX expression, confocal microscopy in HT29 cells; format: cell-based; conditions: HT29, 3 days, CRAd MOI 15.6, VPA IC25/IC50
Procedure: HT29 cells were seeded at 5·10^5 cells/well on 6-well plates and cultured overnight. Cells were treated with Δ24 CRAd (MOI 15.6 vp/cell), VPA (IC25, IC50) or both (CRAd+VPA), or with the non-replicative adenovirus AE18 during 72 h. Then non-adherent tumor cells and adherent tumor cells were detached with TrypLE™ Express (1X) (INVITROGEN) cytospined on slides (500 rpm, 5 min), washed with PBS and fixed with 4% paraformaldehyde for 30 min. After permeabilization with 0.5% Triton X-100 for 10 min, samples were blocked with 3% BSA for 30 min. Samples were exposed to primary antibodies (1:1,000 anti-γH2AX, for 1-2 h in PBS/BSA) followed by Alexa Fluor-conjugated secondary antibody staining for 1 h. When filamentous actin was also stained, tetramethyl-rhodamine B isothiocyanate-labeled phalloidin (SIGMA) was added with the secondary antibody incubation. Cells were washed four times with PBS after secondary antibody staining and then mounted on glass slides by using mounting medium with DAPI (VECTASHIELD; Vector Laboratories). All images were obtained by using the ZEISS LSM 510 confocal microscope.

[14] = system: HT29 cells; assay: Cell size and nucleus morphology, Giemsa staining; format: cell-based; conditions: HT29, 72 h, CRAd MOI 15.6, VPA IC25/IC50
Procedure: HT29 cells in 6-well plates (5·10^5 cells/well) were untreated or treated with Δ24 CRAd (MOI 15.6 vp/cell), VPA (IC25, IC50) or both. After 72 h, cells were harvested, cytospined on slides, fixed with Wright and stained for 15 minutes in Giemsa solution. After washing, dry slides were mounted with a coverslip. Cells and nuclei observations were performed using phase-contrast microscopy.

[15] = Homo sapiens, HCT-116, HCT116, 48 h of treatment
[16] = Homo sapiens, HT-29, HT29, 48 h of treatment
[17] = Homo sapiens, SW-620, SW620, 48 h of treatment

SMILES: CCCC(=O)[O-].[Na+] [Nabu, sodium butyrate]
- pIC50 [1, 15]: 3.00
- pIC50 [2, 16]: 2.40
- pIC50 ([3]; Homo sapiens): 2.15
- pIC50 [4, 17]: 2.52

SMILES: CC(/C=C/C(=O)NO)=C\[C@@H](C)C(=O)c1ccc(N(C)C)cc1 [TSA, Trichostatin A]
- pIC50 ([1]; HCT116, 48 h of treatment): 7.46
- pIC50 ([2]; HT29, 48 h of treatment): 6.82
- pIC50 [3]: 7.12
- pIC50 ([4]; SW620, 48 h of treatment): 7.43

SMILES: CCCC(CCC)C(=O)O [VPA, Valproic Acid]
- pIC50 [1, 15]: 2.92
- pIC50 [2, 16]: 2.00
- pIC50 ([3]; Homo sapiens): 2.00
- pIC50 [4, 17]: 2.30
- effect of VPA on the cytotoxicity of the recombinant adenovirus AE18 [5]: no effect
- LDH release compared to untreated cells [6]: increase in LDH release
- kinetic of tumor growth vs PBS ([7]; VPA 200 mg/kg intraperitoneally, five consecutive days per week, 4 weeks): No difference
- tumor growth vs PBS ([7]; VPA 300 mg/kg intraperitoneally, five consecutive days per week, 4 weeks): significant delay in tumor growth
- toxicity ([7]; VPA 300 mg/kg intraperitoneally, mice): did not trigger significant toxicity
- tumor growth compared to PBS-injected mice ([7]; second series: virus subcutaneously three consecutive days every 7 days, VPA 300 mg/kg i.p. from day 4, 4 weeks): reduction of tumor growth
- viral content in cell-associated and extracellular fractions [8]: reduction of viral content
- E1A expression ([9]; HT29, CRAd MOI 15.6, 24 h, 48 h, 72 h): did not modify E1A expression
- expression of the fiber protein ([9]; HT29, CRAd MOI 15.6, day 1): strongly diminished
- expression of the fiber protein ([9]; HT29, CRAd MOI 15.6, day 2 and 3): minor effect
- amount of hexon protein in the tumor [10]: decreased
- increase in p21 expression compared to untreated cells [11]: up to 6 fold
- level of γH2AX relative to untreated cells [12]: 5.6 fold
- γH2AX expression (confocal microscopy) [13]: much less than CRAd
- cell size and nucleus morphology [14]: increase in cell size and cell nuclei with well-defined shape
